Where two headings read alike, the source gives them in different places.
Tested on: MDA 231 cells
Test: Cell growth inhibition: MTT assay, MDA 231 (ER- breast carcinoma)
Type: cell-based
Conditions: Homo sapiens, MDA-MB-231, read-out: % inhibition of cell growth compared to no drug control
Method: ER- breast carcinoma, human (MDA-231) obtained from ATCC (HTB 22), were grown in Eagle's MEM medium supplemented with non-essential amino acids, sodium pyruvate, and Earle's BSS, 10% FBS, and 13 ng/mL gentamicin. Cells were incubated at 37° C., 4.5% CO2 and 95.5% humidified air.
1. Cell growth inhibition: MTT Assay
The compounds of formula 1 were tested for ability to inhibit cell growth using the standard MTT assay, a tetrazolium-based assay which measures the viability of cells in culture. Cells were harvested upon reaching 70-80% confluency and pelleted. The cells were then resuspended in medium in which FBS was replaced with Hyclone's Charcoal/Dextran stripped FBS, and seeded (2 mL/well) into 6-well plates (Corning) at a density allowing for linear growth over a four day assay period. Compounds of formula 1 (10 mM stock in dimethylsulfoxide (DMSO)) were added 18-24 hours post-seeding. Compound dilutions were prepared in the appropriate growth media and added to the cells for final concentrations of 10, 3.3 and 1 μM in 0.1% DMSO. At 24, 48 and 72 hr. time points, MTT (3-[4,5-dimethylthiazol-2-yl-2,5-diphenyltetrazolium bromide) stock solution (5mg/mL in 1 PBS) was added to the cells plates (625 μL/well) which were then incubated for 2.5 hours. Liquid was aspirated from the wells and 1 mL/well of 95% ethanol was added to solubilize the formazan reaction product. The plates were shaken (Bellco Mini-Orbital Shaker) for 15 minutes. The solubilized formazan was then transferred (50 μls) into a 96-well plate and the optical densities (OD) were measured (Bio-Tek Microplate Reader) at 570 nm and reference wavelength of 660 nm. Percentage of inhibition of cell growth was calculated according to the following formula: [formula]

In the case of `C/C(=C/C=C/C(C)=C/C(=O)Nc1ccc(O)cc1)c1cc(C(F)(F)F)cc(C(F)(F)F)c1` [N-(4-hydroxyphenyl)-(2E,4E,6Z)-7-[3,5-bis(trifluoromethyl)phenyl]-3,7-dimethyl-2,4,6-heptatrienamide], the inhibition at 1 µM (24 hours) is reported as 18%, the inhibition at 3.3 µM (24 hours) is reported as 30% and the inhibition at 10 µM (24 hours) is reported as 26%. It also gave an inhibition at 1 µM (48 hours) of 39%, an inhibition at 3.3 µM (48 hours) of 35% and an inhibition at 10 µM (48 hours) of 61%. For the same compound, the inhibition at 1 µM (72 hours) was 46%, the inhibition at 3.3 µM (72 hours) was 62% and the inhibition at 10 µM (72 hours) was 71%.

From patent US6310247A, “7-aryl-6(Z)-heptatrienoic acid retinamides” (Hoffmann-LA Roche Inc., priority 1999, dated 2001)
